Reference: ChEMBL document CHEMBL5154761, “Design, synthesis, and evaluation of 9-(pyrimidin-2-yl)-9H-carbazole derivatives disrupting mitochondrial homeostasis in human lung adenocarcinoma” (Eur J Med Chem, 2022)
pIC50: −log10 of the molar value. Activity calls are given as the source filed them. No cut-off for these calls is given here.

Assays:
[1] = tested on: A549; assay: Cytotoxicity against human A549 cells assessed as cell growth inhibition at 10 uM incubated for 48 hrs by MTT assay relative to control; assay type: functional
[2] = tested on: A549; assay: Cytotoxicity against human A549 cells assessed as cell growth inhibition incubated for 48 hrs by MTT assay; assay type: functional, cell-based; conditions: A549, 48 h
[3] = tested on: A549; assay: Induction of apoptosis in human A549 cells assessed as viable cells at 1 uM incubated for 48 hrs by Annexin V-FITC/propidium iodide staining based flow cytometry analysis (reference value: 97.3%); assay type: functional; conditions: read-out: Activity
[4] = tested on: A549; assay: Inhibition of mitochondrial membrane potential in human A549 cells by JC-1 staining based confocal microscopy; assay type: functional, cell-based; conditions: dose 1.0 µM, DDE = dose-dependent effect
[5] = tested on: A549; assay: Induction of cell cycle arrest in human A549 cells assessed as decrease in cyclin D1 expression upto 1 uM incubated for 48 hrs by Western blot analysis; assay type: functional, cell-based
[6] = tested on: A549; assay: Induction of apoptosis in human A549 cells assessed as necrotic cells at 1 uM incubated for 48 hrs by Annexin V-FITC/propidium iodide staining based flow cytometry analysis (reference value: 0.30%); assay type: functional
[7] = tested on: A549; assay: Induction of morphological changes in human A549 cells assessed as swollen microstructure of mitochondria by transmission electron microscopy; assay type: functional, cell-based
[8] = tested on: A549; assay: Induction of apoptosis in human A549 cells assessed as increase in cleaved caspase 7 protein expression at 0.5 to 1 uM measured after 48 hrs by Western blot assay; assay type: functional, cell-based; conditions: dose 0.5-1 µM
[9] = tested on: A549; assay: Induction of cell cycle arrest in human A549 cells assessed as accumulation at G2/M phase at 0.5 uM incubated for 48 hrs by PI staining based flow cytometry analysis (reference value: 18.14); assay type: functional
[10] = tested on: A549; assay: Induction of apoptosis in human A549 cells assessed as increase in cleaved caspase 3 protein expression at 0.5 to 1 uM measured after 48 hrs by Western blot assay; assay type: functional, cell-based; conditions: dose 0.5-1 µM
[11] = tested on: A549; assay: Induction of apoptosis in human A549 cells assessed as late apoptotic cells at 0.5 uM incubated for 48 hrs by Annexin V-FITC/propidium iodide staining based flow cytometry analysis (reference value: 1.00%); assay type: functional
[12] = tested on: A549; assay: Inhibition of mitochondrial respiration in human A549 cells assessed as decrease in maximal respiration at 2 uM in presence of oligomycin/FCCP/antimycin A /rotenone measured upto 75 mins by seahorse XFe24 flux analyzer; assay type: functional, cell-based
[13] = tested on: A549; assay: Inhibition of mitochondrial respiration in human A549 cells assessed as decrease in proton leak at 2 uM in presence of oligomycin/FCCP/antimycin A/rotenone measured upto 75 mins by seahorse XFe24 flux analyzer; assay type: functional, cell-based
[14] = tested on: A549; assay: Induction of mitochondrial membrane potential loss in human A549 cells assessed as reduction in ATP levels at 1 to 2 uM incubated for 12 hrs in presence of oligomycin/FCCP/antimycin A /rotenone by seahorse XFe24 flux analyzer; assay type: functional, cell-based; conditions: dose 1-2 µM
[15] = tested on: A549; assay: Antiproliferative activity against human A549 cells at >1.35 uM incubated for 48 hrs by RTCA analysis; assay type: functional, cell-based
[16] = tested on: A549; assay: Antitumor activity against human A549 cells xenografted in BALB/c nude mouse assessed as reduction in tumor size at 2 mg/kg, ip administered once daily for 14 days and measured every day (reference value: 2100 mm3); assay type: functional; conditions: time 14 day
[17] = tested on: A549; assay: Inhibition of mitochondrial membrane potential in human A549 cells by JC-1 staining based high-content screening method; assay type: functional, cell-based; conditions: dose 0.5-2 µM, DDE = dose-dependent effect
[18] = tested on: NRK-52E; assay: Antiproliferative activity against rat NRK-52E cells at upto 10.75 uM incubated for 48 hrs by RTCA analysis; assay type: toxicity, cell-based
[19] = tested on: A549; assay: Induction of cell cycle arrest in human A549 cells assessed as accumulation at S phase at 1 uM incubated for 48 hrs by PI staining based flow cytometry analysis (reference value: 12.85%); assay type: functional
[20] = tested on: A549; assay: Induction of apoptosis in human A549 cells assessed as decrease in Bcl-2 protein expression at 0.5 to 1 uM measured after 48 hrs by Western blot assay; assay type: functional, cell-based; conditions: dose 0.5-1 µM
[21] = tested on: A549; assay: Inhibition of mitochondrial respiration in human A549 cells assessed as reduction in respiratory control ratio by seahorse XFe24 flux analyzer; assay type: functional, cell-based; conditions: dose 0.5-2 µM, DDE = dose-dependent effect
[22] = tested on: A549; assay: Inhibition of colony formation in human A549 cells incubated for 48 hrs followed by culture medium replacement for every 72 hrs and measured after 7 days by crystal violet staining based analysis; assay type: functional, cell-based; conditions: dose 1-2 µM, time 7.0 day, DDE = dose-dependent effect
[23] = tested on: A549; assay: Induction of cell cycle arrest in human A549 cells assessed as accumulation at Go/G1 phase at 1 uM incubated for 48 hrs by PI staining based flow cytometry analysis (reference value: 62.45); assay type: functional
[24] = tested on: A549; assay: Induction of apoptosis in human A549 cells assessed as increase in cleaved PARP protein expression at 0.5 to 1 uM measured after 48 hrs by Western blot assay; assay type: functional, cell-based; conditions: dose 0.5-1 µM
[25] = tested on: A549; assay: Induction of DNA damage in human A549 cells assessed as upregulation of gamma H2AX incubated for 48 hrs by Western blot analysis; assay type: functional, cell-based; conditions: dose <= 1.0 µM, DDE = dose-dependent effect
[26] = tested on: A549; assay: Induction of apoptosis in human A549 cells assessed as necrotic cells at 0.5 uM incubated for 48 hrs by Annexin V-FITC/propidium iodide staining based flow cytometry analysis (reference value: 0.30%); assay type: functional
[27] = tested on: A549; assay: Induction of morphological changes in human A549 cells assessed as vacuolated microstructure of mitochondria by transmission electron microscopy; assay type: functional, cell-based
[28] = tested on: A549; assay: Inhibition of mitochondrial respiration in human A549 cells assessed as decrease in spare capacity at 2 uM in presence of oligomycin/FCCP/antimycin A /rotenone measured upto 75 mins by seahorse XFe24 flux analyzer; assay type: functional, cell-based
[29] = tested on: A549; assay: Induction of cell cycle arrest in human A549 cells assessed as increase in cyclin B1 expression upto 1 uM incubated for 48 hrs by Western blot analysis; assay type: functional, cell-based
[30] = tested on: A549; assay: Induction of apoptosis in human A549 cells assessed as viable cells at 0.5 uM incubated for 48 hrs by Annexin V-FITC/propidium iodide staining based flow cytometry analysis (reference value: 97.3%); assay type: functional; conditions: read-out: Activity
[31] = tested on: A549; assay: Induction of apoptosis in human A549 cells assessed as increase in P53 protein expression at 0.5 to 1 uM measured after 48 hrs by Western blot assay; assay type: functional, cell-based; conditions: dose 0.5-1 µM
[32] = Antiproliferative activity against rat NRK-52E cells assessed as cell growth inhibition incubated for 48 hrs by MTT assay; assay type: toxicity, cell-based
[33] = tested on: A549; assay: Induction of apoptosis in human A549 cells assessed as increase in caspase 3 protein expression at 0.5 to 1 uM measured after 48 hrs by Western blot assay; assay type: functional, cell-based; conditions: dose 0.5-1 µM
[34] = tested on: A549; assay: Induction of apoptosis in human A549 cells assessed as decrease in caspase 7 protein expression at 0.5 to 1 uM measured after 48 hrs by Western blot assay; assay type: functional, cell-based; conditions: dose 0.5-1 µM
[35] = tested on: A549; assay: Induction of apoptosis in human A549 cells assessed as early apoptotic cells at 0.5 uM incubated for 48 hrs by Annexin V-FITC/propidium iodide staining based flow cytometry analysis (reference value: 1.46%); assay type: functional
[36] = tested on: A549; assay: Induction of apoptosis in human A549 cells assessed as late apoptotic cells at 1 uM incubated for 48 hrs by Annexin V-FITC/propidium iodide staining based flow cytometry analysis (reference value: 1.00%); assay type: functional
[37] = tested on: A549; assay: Induction of apoptosis in human A549 cells assessed as increase in Bax protein expression at 0.5 to 1 uM measured after 48 hrs by Western blot assay; assay type: functional, cell-based; conditions: dose 0.5-1 µM
[38] = tested on: A549; assay: Induction of apoptosis in human A549 cells assessed as early apoptotic cells at 1 uM incubated for 48 hrs by Annexin V-FITC/propidium iodide staining based flow cytometry analysis (reference value: 1.46%); assay type: functional
[39] = tested on: A549; assay: Induction of cell cycle arrest in human A549 cells assessed as accumulation at Go/G1 phase at 0.5 uM incubated for 48 hrs by PI staining based flow cytometry analysis (reference value: 62.45); assay type: functional
[40] = tested on: A549; assay: Induction of cell cycle arrest in human A549 cells assessed as accumulation at G2/M phase incubated for 48 hrs by PI staining based flow cytometry analysis; assay type: functional; conditions: dose <= 1.0 µM, DDE = dose-dependent effect
[41] = tested on: A549; assay: Induction of apoptosis in human A549 cells assessed as upregulation of caspase 9 protein expression at 0.5 to 1 uM measured after 48 hrs by Western blot assay; assay type: functional, cell-based; conditions: dose 0.5-1 µM
[42] = tested on: A549; assay: Induction of cell cycle arrest in human A549 cells assessed as accumulation at G2/M phase at 1 uM incubated for 48 hrs by PI staining based flow cytometry analysis (reference value: 18.14); assay type: functional
[43] = tested on: A549; assay: Inhibition of colony formation in human A549 cells at 2 uM incubated for 48 hrs followed by culture medium replacement for every 72 hrs and measured after 14 days by crystal violet staining based analysis relative to control; assay type: functional; set-up: scale not given: the % may be the effect or the level left; conditions: time 14 day
[44] = tested on: A549; assay: Induction of cell cycle arrest in human A549 cells assessed as accumulation at S phase at 0.5 uM incubated for 48 hrs by PI staining based flow cytometry analysis (reference value: 12.85%); assay type: functional
[45] = tested on: A549; assay: Induction of apoptosis in human A549 cells assessed as rate of apoptotic cells at 0.5 to 1 uM incubated for 48 hrs by Annexin V-FITC/propidium iodide staining based flow cytometry analysis (reference value: 2.7 %); assay type: functional; conditions: dose 0.5-1 µM
[46] = Toxicity in BALB/c mouse xenografted with human A549 cells assessed as effect on body weight at 0.4 to 2 mg/kg, ip administered once daily for 14 days and measured every day; assay type: organism-based; conditions: in vivo, 336 h, dose 0.4-2 mg/kg, time 14 day
[47] = tested on: A549; assay: Antitumor activity against human A549 cells xenografted in BALB/c nude mouse assessed as necrotic cells at 2 mg/kg, ip administered once daily for 14 days by H and E staining; assay type: functional, organism-based; conditions: time 14.0 day
[48] = tested on: A549; assay: Induction of cell cycle arrest in human A549 cells assessed as accumulation at G2/M phase at 10 uM incubated for 48 hrs by PI staining based flow cytometry analysis; assay type: functional
[49] = tested on: A549; assay: Induction of apoptosis in human A549 cells assessed as increase in PARP protein expression at 0.5 to 1 uM measured after 48 hrs by Western blot assay; assay type: functional, cell-based; conditions: dose 0.5-1 µM
[50] = tested on: A549; assay: Inhibition of mitochondrial respiration in human A549 cells assessed as decrease in basal respiration at 2 uM in presence of oligomycin/FCCP/antimycin A /rotenone measured upto 75 mins by seahorse XFe24 flux analyzer; assay type: functional, cell-based

## O=C(c1ccc(OCc2ccccc2)cc1)c1cccc2c3ccccc3n(-c3ncccn3)c12
[1]
  inhibition at 10 µM: < 50%
[2]
  pIC50: 5.67

## N#Cc1cccc(C(=O)c2cccc3c4ccccc4n(-c4ncccn4)c23)c1
[1]
  inhibition at 10 µM: < 50%
[2]
  pIC50: 4.86

## O=C(c1ccc2c(c1)OCO2)c1cccc2c3ccccc3n(-c3ncccn3)c12
[3]
  viability at 1 µM: 78.9%
[4]
  inhibition: Dde
[5]
  Activity: Active
[1]
  inhibition at 10 µM: 78.6%
[6]
  Activity: 1.8%
[7]
  Activity: Active
[8]
  Activity: Active
[9]
  Activity: 23.16%
[10]
  Activity: Active
[11]
  Activity: 2.17%
[12]
  inhibition: Active
[13]
  inhibition: Active
[14]
  Activity: Active
[15]
  Activity: Active
[16]
  Activity: 1255 mm3
[17]
  inhibition: Dde
[18]
  Activity: Non-Toxic
[19]
  Activity: 14.11%
[20]
  Activity: Active
[21]
  inhibition: Dde
[22]
  inhibition: Dde
[23]
  Activity: 29.76%
[24]
  Activity: Active
[25]
  Activity: Dde
[26]
  Activity: 1.74%
[27]
  Activity: Active
[28]
  inhibition: Active
[29]
  Activity: Active
[30]
  viability at 0.5 µM: 93.4%
[31]
  Activity: Active
[32]
  IC50 at 48 h: 1.25 µM
[33]
  Activity: Active
[2]
  pIC50: 6.09
[34]
  Activity: Active
[35]
  Activity: 2.71%
[36]
  Activity: 6.98%
[37]
  Activity: Active
[38]
  Activity: 12.3%
[39]
  Activity: 59.84%
[40]
  Activity: Dde
[41]
  Activity: Active
[42]
  Activity: 65.62%
[43]
  Activity: 69%
[44]
  Activity: 13.84%
[45]
  Activity: 21.1%
[46]
  Activity: Non-Toxic
[47]
  Activity: Active
[48]
  Activity: Active
[49]
  Activity: Active
[50]
  inhibition: Active
